Reference: patent publication US12202816B2 (CALLIDITAS THERAPEUTICS SUISSE SA, priority 2018, dated 2025)

Target: hNOX enzymes
Assay: ROS production measurement on hNOX membranes (Amplex Red fluorescence assay, assay 1)
Assay type: biochemical, human
Conditions: membranes from CHO or HEK cells overexpressing hNox enzymes; Nox isoform not stated; non linear regression; read-out: Nox inhibitory constant Ki
Method: Reactive oxygen species (ROS) production generated by hNOX enzymes was measured by fluorescence in both cellular and membrane-based assays using the Amplex® Red reagent. In the presence of horseradish peroxidase (HRP), the Amplex® Red reagent (10-acetyl-3,7-dihydroxyphenoxazine, AR), which is a colorless and nonfluorescent derivative of dihydroresorufin, reacts with H2O2 with a 1:1 stoichiometry to produce highly fluorescent resorufin at an excitation and emission wavelengths of 544 nm and 590 nm, respectively.
Membranes from CHO or HEK cells overexpressing hNox enzymes were prepared as previously described (Palicz et al., 2001, J. Biol. Chem, 76, 3090). After resuspension in sonication buffer (11% sucrose, 120 mM NaCl, 1 mM EGTA in PBS, pH 7.4), cells were broken by sonication and centrifuged (200 g, 10 min). The supernatant was layered onto a 17/40% (w/v) discontinuous sucrose gradient and centrifuged (150,000 g for 30 min). Membrane fractions were collected from the 17/40% interface, aliquoted in 10 μl samples and were stored at −80° C. Protein concentration was determined with Bradford reagent. Flavin Adenine Dinucleotide (FAD) (catalog #F6625-500MG), MgCl2 (catalog #M8266-100G), Phosphatidic Acid (PA) (catalog #P3591-50MG) were purchased from Sigma-Aldrich. Horseradish peroxidase (HRP) (catalog #10108090001) was purchased from Roche. NADPH (catalog #A1395, 0500) was purchased from Applichem. Amplex red (AR) (catalog #A22177) was purchased from Invitrogen. 96 well polypropylene and black plates were purchased from Milian (catalog #055529 and #055218, respectively). FLUOstar OPTIMA microplate reader was supplied by BMG Labtech (Germany). Zephyr® Compact Liquid Handling Workstation was supplied by PerkinElmer (Germany).
Assay 1: ROS Production Measurement on hNOX Membranes
All Solutions were placed on ice and protected from light. The final concentration in the 1× hNOX membrane fluorescent assay buffer were PBS pH7, 6 μM FAD, 15 μM PA, 1 mM MgCl2, 12.5 μM AR, 0.02 u/ml, 125 ng membranes, 1.5 μg of cofactors and 30 μM NADPH. The NADPH was dissolved in water at a concentration of 12 mM and was transferred in a metal transfer plate kept at 4° C. The NADPH was added to the assay plate to initiate the reaction just before the measurement.
Serial dilution (1:3, 10 serial dilution) of the compounds was performed in 100% DMSO in 96 well polypropylene plate—Row B—H Column 1-10, Row A, Column 1-10 contained reference compound. Starting concentration was 10^−2 M (10 mM). Final concentration in assay was 10^−4 M (100 μM). Compounds were diluted twice in PBS buffer by transferring 30 μl/well of PBS into 30 μl/well compounds sample in DMSO using Zephyr® Compact Liquid Handling Workstation. Control wells-columns 1 and 12-contained 60 μl DMSO in 50% PBS pH7.
Reaction mixture is dispensed using Zephyr® Compact Liquid Handling Workstation. 90 μl of mix with membrane were dispensed into 96 well black plates—Column 2-11, Column 1 Row A-D, Column 12 Row E-H. 90 μl of control mix were dispensed into assay plate—Column 1 Row E-H, Column 12 Row A-D, which are wells for measuring background signal. 2 μl of compounds were dispensed into each well of assay plate using Zephyr® Compact Liquid Handling Workstation. The reaction mixture with compounds was incubated in assay plates for 20 min at 37° C. in a Titramax microplate incubator with gentle agitation. 10 μl of NADPH is dispensed to the assay plate. Fluorescence reading was recorded with the FLUOstar OPTIMA microplate reader for 10 min at 37° C. (8 cycles, 1 cycle duration 55 sec).
The Table 14 below summarizes the inhibition of NOX activity as measured by the above described assay 1 and expressed by their inhibitory constant calculated by non linear regression analysis using GraphPad Prism Software (GraphPad Software Co., San Diego, CA): […]

A Ki of 0.77 µM was found for `COc1ccc2c(-c3cc4cc(-c5ccc(N6CCOCC6)nc5)[nH]c4cc3Cl)cccc2n1` [Example 92] in this work.
